Laboratory results published in US6933304B2, “Heteroarylalkanoic acids as integrin receptor antagonists” (Pharmacia Corporation, priority 2000, dated 2005).

Columns and labels:
[1] = molecular target: T1, Human fibrinogen receptor (IIb/IIIa) (Homo sapiens, UniProt P05106+P08514); test: Purified IIb/IIIa receptor assay (solid phase receptor assay, SPRA); assay type: binding; settings: selectivity ratio: IC50 αIIbβ3 (solid phase receptor assay) over IC50 β3
T1 construct: Human fibrinogen receptor (IIb/IIIa) was purified from outdated platelets; from tissue; host or cells: outdated human platelets
Source text: Human fibrinogen receptor (IIb/IIIa) was purified from outdated platelets. (Pytela, R., Pierschbacher, M. D., Argraves, S., Suzuki, S., and Rouslahti, E. “Arginine-Glycine-Aspartic acid adhesion receptors”, Methods in Enzymology 144(1987):475-489.) Human vitronectin was purified from fresh frozen plasma as described in Yatohgo, T., Izumi, M., Kashiwagi, H., and Hayashi, M., “Novel purification of vitronectin from human plasma by heparin affinity chromatography,” Cell Structure and Function 13(1988):281-292. Biotinylated human vitronectin was prepared by coupling NHS-biotin from Pierce Chemical Company (Rockford, IL) to purified vitronectin as previously described. (Charo, I. F., Nannizzi, L., Phillips, D. R., Hsu, M. A., Scarborough, R. M., “Inhibition of fibrinogen binding to GP IIb/IIIa by a GP IIIa peptide”, J. Biol. Chem. 266(3)(1991): 1415-1421.) Assay buffer, OPD substrate tablets, and RIA grade BSA were obtained from Sigma (St. Louis, Mo.). Anti-biotin antibody was obtained from Sigma (St. Louis, Mo.). Nalge Nunc-Immuno microtiter plates were obtained from (Rochester, N.Y.). ADP reagent was obtained from Sigma (St. Louis, Mo.).
This assay is essentially the same reported in Niiya, K., Hodson, E., Bader, R., Byers-Ward, V. Koziol, J. A., Plow, E. F. and Ruggeri, Z. M., “Increased surface expression of the membrane glycoprotein IIb/IIIa complex induced by platelet activation: Relationships to the binding of fibrinogen and platelet aggregation”, Blood 70(1987):475-483. The purified human fibrinogen receptor (IIb/IIIa) was diluted from stock solutions to 1.0 μg/mL in Tris-buffered saline containing 1.0 mM Ca^++, Mg^++, and Mn^++, pH 7.4 (TBS^+++). The diluted receptor was immediately transferred to Nalge Nunc-Immuno microtiter plates at 100 μL/well (100 ng receptor/well). The plates were sealed and incubated overnight at 4° C. to allow the receptors to bind to the wells. All remaining steps were at room temperature. The assay plates were emptied and 200 μL of 1% RIA grade BSA in TBS^+++ (TBS^+++/BSA) were added to block exposed plastic surfaces. Following a 2 hour incubation, the assay plates were washed with TBS^+++ using a 96 well plate washer. Logarithmic serial dilution of the test compound and controls were made starting at a stock concentration of […] and using 2 nM biotinylated vitronectin in TBS^+++/BSA as the diluent. This premixing of labeled ligand with test (or control) ligand, and subsequent transfer of 50 μL aliquots to the assay plate was carried out with a CETUS Propette robot; the final concentration of the labeled ligand was 1 nM and the highest concentration of test compound was 1.0×10^−4 M. The competition occurred for two hours after which all wells were washed with a plate washer as before. Affinity purified horseradish peroxidase labeled goat anti-biotin antibody was diluted 1:2000 in TBS^+++/BSA and 125 μL were added to each well. After 45 minutes, the plates were washed and incubated with […] substrate in 100 mM/L citrate buffer, pH 5.0. The plate was read with a microtiter plate reader at a wavelength of 450 nm and when the maximum-binding control wells reached an absorbance of about 1.0, the final A450 were recorded for analysis. The data were analyzed using a macro written for use with the EXCELJ spreadsheet program. The mean, standard deviation, and %CV were determined for duplicate concentrations. The mean A450 values were normalized to the mean of four maximum-binding controls (no competitor added)(B-MAX). The normalized values were subjected to a four parameter curve fit algorithm, [Robard et al., Int.

[2] = molecular target: T2, αVβ3 integrin (293-β3 cells) (Homo sapiens, UniProt P05106+P06756); test: 293-β3 cell adhesion assay (adhesion to immobilized vitronectin); assay type: cell-based; settings: 200 uM Mn2+, read-out: 293-β3 (IC50 <10 μM)
T2 construct: expressed in transfected cells; host or cells: 293 human embryonic kidney cells (293-β3)
Source text: While the β3 subunit of αVβ3 is only known to complex with αV or αIIb, the αV subunit complexes with multiple β subunits. The three αV integrins most homologous with αVβ3 are αVβ1, αVβ5 and αVβ6, with 43%, 56% and 47% amino acid identity in the β subunits, respectively. To evaluate the selectivity of compounds between the integrins αVβ3 and αVβ6, cell-based assays were established using the 293 human embryonic kidney cell line. 293 cells express αVβ1, but little to no detectable αVβ3 or αVβ6. cDNAs for β3 and β6 were transfected separately into 293 cells to generate 293-β3 and 293-β6 cells, respectively. High surface expression of αVβ3 and αVβ6 was confirmed by flow cytometry. Conditions were established for each cell line in which cell adhesion to immobilized human vitronectin was mediated by the appropriate integrin, as determined by a panel of integrin-specific, neutralizing monoclonal antibodies. Briefly, cells were incubated with inhibitor in the presence of 200 uM Mn^2+, allowed to adhere to immobilized vitronectin, washed, and adherent cells are detected endogenous alkaline phosphatase and para-nitrophenyl phosphate. An 8-point dose-response curve using either 10-fold or 3-fold dilutions of compound was evaluated by fitting a four-parameter logistic, nonlinear model (using SAS).

[3] = molecular target: T3, αVβ6 (HT-29 human colon carcinoma cells) (Homo sapiens, UniProt P06756+P18564); test: HT-29 cell adhesion assay (adhesion to immobilized LAP); assay type: cell-based; settings: selectivity ratio: IC50 αVβ6 (HT-29) over IC50 β3
T3 construct: endogenous in cells; host or cells: HT-29 human colon carcinoma cells
Description: To evaluate compound potency for membrane-bound αVβ6 an additional cell-based adhesion assay was established using the HT-29 human colon carcinoma cell line. High surface expression of αVβ6 on HT-29 cells was confirmed by flow cytometry. Conditions were established in which cell adhesion to immobilized human latency associated peptide (LAP) was mediated by the αVβ6, as determined by a panel of integrin-specific, neutralizing monoclonal antibodies. Briefly, cells were incubated with inhibitor in the presence of 200 uM Mn^2+, allowed to adhere to immobilized LAP, washed, and adherent cells are detected by quantifying endogenous alkaline phosphatase using para-nitrophenyl phosphate. An 8-point dose-response curve using either 10-fold or 3-fold dilutions of compound was evaluated by fitting a four-parameter logistic, nonlinear model (using SAS). The compounds evaluated were relatively ineffective at inhibition of αVβ6-mediated cell adhesion. The selective antagonism of the αVβ3 integrin is viewed as desirable in this class of compounds, as αVβ6 may also play a role in normal physiological processes of tissue repair and cellular turnover that routinely occur in the skin and pulmonary tissues.

T3 sequence (P06756 31-889 limits assumed): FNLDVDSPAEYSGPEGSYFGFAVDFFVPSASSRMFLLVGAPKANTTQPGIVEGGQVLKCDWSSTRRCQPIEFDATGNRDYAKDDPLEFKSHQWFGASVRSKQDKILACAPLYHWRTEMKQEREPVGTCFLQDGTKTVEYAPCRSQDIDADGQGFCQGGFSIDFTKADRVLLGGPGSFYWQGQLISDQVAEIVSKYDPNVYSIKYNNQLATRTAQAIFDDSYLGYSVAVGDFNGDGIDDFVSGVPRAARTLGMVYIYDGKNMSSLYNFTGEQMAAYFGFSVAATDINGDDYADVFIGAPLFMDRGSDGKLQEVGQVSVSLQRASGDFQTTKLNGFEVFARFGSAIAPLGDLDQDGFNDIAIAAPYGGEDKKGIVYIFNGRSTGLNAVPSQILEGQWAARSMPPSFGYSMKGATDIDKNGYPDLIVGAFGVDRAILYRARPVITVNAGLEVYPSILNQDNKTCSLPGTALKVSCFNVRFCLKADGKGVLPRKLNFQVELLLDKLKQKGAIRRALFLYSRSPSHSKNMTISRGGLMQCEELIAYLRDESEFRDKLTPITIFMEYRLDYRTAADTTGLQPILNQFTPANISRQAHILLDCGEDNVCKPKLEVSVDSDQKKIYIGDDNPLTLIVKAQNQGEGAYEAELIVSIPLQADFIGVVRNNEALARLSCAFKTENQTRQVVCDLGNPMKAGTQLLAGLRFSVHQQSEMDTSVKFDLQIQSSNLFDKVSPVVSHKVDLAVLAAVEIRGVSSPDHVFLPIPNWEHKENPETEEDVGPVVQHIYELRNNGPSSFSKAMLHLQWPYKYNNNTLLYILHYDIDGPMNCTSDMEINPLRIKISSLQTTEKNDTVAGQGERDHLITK
T3 sequence (P06756 891-1048 partner limits assumed): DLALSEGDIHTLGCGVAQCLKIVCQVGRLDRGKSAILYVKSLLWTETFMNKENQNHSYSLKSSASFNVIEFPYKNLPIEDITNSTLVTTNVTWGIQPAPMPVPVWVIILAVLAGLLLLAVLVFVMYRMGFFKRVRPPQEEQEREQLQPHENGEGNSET
T3 sequence (P18564 22-788): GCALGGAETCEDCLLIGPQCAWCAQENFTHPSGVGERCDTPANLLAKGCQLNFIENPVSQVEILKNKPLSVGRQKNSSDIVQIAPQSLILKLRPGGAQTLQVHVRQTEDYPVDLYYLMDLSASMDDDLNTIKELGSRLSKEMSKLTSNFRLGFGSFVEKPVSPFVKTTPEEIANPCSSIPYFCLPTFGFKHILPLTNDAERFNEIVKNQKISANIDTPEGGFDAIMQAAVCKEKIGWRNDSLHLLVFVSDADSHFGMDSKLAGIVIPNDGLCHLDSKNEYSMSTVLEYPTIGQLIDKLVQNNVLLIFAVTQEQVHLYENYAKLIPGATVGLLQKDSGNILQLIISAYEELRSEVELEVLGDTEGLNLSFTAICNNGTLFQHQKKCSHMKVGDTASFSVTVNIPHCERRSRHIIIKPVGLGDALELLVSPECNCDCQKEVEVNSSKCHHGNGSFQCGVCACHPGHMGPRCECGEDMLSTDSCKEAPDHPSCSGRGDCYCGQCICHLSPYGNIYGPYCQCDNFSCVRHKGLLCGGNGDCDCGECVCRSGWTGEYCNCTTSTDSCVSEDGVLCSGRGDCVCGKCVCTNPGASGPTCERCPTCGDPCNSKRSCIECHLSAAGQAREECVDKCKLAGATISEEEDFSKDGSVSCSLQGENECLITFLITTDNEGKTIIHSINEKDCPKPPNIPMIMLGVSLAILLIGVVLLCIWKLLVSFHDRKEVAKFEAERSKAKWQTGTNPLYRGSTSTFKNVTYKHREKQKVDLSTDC
T2 sequence (P06756 31-889 limits assumed): as the sequence (P06756 31-889 limits assumed) above
T2 sequence (P06756 891-1048 partner limits assumed): as the sequence (P06756 891-1048 partner limits assumed) above
T2 sequence (P05106 27-788): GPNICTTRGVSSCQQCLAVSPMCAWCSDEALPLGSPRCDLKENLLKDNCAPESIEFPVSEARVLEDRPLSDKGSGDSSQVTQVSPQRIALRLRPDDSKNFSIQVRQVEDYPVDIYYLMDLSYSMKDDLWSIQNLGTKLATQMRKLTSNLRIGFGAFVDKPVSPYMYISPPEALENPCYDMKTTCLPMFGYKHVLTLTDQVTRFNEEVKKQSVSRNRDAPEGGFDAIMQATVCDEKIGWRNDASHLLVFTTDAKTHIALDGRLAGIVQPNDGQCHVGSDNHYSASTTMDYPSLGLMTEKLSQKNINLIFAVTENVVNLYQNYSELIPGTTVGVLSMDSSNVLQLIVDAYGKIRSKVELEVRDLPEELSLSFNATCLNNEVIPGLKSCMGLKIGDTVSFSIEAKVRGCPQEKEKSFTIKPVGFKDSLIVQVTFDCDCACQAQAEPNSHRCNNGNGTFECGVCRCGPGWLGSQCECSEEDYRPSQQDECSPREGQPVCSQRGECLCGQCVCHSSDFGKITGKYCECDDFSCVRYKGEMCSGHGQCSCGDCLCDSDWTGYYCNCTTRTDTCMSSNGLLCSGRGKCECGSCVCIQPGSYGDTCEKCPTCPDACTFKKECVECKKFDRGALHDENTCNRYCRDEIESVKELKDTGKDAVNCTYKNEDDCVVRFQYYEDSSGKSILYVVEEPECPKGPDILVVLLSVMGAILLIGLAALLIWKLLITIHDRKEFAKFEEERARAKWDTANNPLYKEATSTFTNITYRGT
T1 sequence (P08514 32-887 limits assumed): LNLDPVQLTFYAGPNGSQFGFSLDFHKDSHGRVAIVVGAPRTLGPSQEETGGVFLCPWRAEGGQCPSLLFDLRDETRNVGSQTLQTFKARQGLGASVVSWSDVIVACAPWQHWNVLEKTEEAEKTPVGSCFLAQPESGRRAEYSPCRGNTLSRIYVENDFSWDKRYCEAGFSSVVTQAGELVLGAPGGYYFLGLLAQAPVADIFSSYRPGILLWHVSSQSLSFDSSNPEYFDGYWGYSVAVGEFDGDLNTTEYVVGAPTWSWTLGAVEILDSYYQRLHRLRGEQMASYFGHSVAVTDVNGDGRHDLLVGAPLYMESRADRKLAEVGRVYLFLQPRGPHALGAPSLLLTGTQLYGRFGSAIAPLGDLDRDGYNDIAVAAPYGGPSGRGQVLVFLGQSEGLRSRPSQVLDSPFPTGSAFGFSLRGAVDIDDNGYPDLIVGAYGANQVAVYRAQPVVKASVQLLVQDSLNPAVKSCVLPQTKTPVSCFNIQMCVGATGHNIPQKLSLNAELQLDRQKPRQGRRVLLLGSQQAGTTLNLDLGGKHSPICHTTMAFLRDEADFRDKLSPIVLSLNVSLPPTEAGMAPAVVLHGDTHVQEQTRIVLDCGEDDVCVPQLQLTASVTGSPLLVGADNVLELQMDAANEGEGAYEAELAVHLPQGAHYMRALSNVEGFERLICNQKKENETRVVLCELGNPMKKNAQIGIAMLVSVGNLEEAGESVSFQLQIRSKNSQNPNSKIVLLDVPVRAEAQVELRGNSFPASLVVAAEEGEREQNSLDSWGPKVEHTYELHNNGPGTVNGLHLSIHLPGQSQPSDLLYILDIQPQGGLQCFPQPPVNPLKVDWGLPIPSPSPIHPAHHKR
T1 sequence (P08514 891-1039 partner limits assumed): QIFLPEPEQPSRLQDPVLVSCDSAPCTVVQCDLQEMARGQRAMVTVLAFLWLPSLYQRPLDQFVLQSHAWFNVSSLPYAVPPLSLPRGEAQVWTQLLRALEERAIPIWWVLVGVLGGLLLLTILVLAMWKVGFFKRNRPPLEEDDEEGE
T1 sequence (P05106 27-788): as the sequence (P05106 27-788) above

SMILES	SPRA AIIbB3 Selectivity* IIbIIIa/β3 [1]	IC50 [2]	HT-29 β-6 Selectivity* (β6/β3) [3]
CCC(C)(CC(=O)O)Cc1nc(CCCCNc2ccccn2)no1 (stereo not drawn) [Example 36, 3-methyl-3-({3-[4-(pyridin-2-ylamino)butyl]-1,2,4-oxadiazol-5-yl}methyl)pentanoic acid]	+++ (Selectivity Ratio >100 +++)	< 10 µM	+++ (Selectivity Ratio >100 +++)
O=C(O)C(F)(F)F.O=C(O)CC(Cc1nc(CCCCNc2ccccn2)no1)c1cnc2ccccc2c1 (stereo not drawn) [Example 19, 3-quinolin-3-yl-4-{3-[4-(pyridin-2-ylamino)butyl]-1,2,4-oxadiazol-5-yl}-butanoic acid]	++ (Selectivity Ratio of 10-100 ++)	< 10 µM	+++ (Selectivity Ratio >100 +++)
O=C(O)C(F)(F)F.O=C(O)CC(Cc1nc(CCCCNc2ccccn2)no1)c1cccc(F)c1 (stereo not drawn) [Example 25, 3-(3-fluorophenyl)-4-{3-[4-(pyridin-2-ylamino)butyl]-1,2,4-oxadiazol-5-yl}butanoic acid trifluoroacetate]	++ (Selectivity Ratio of 10-100 ++)	< 10 µM	+++ (Selectivity Ratio >100 +++)
CC(C)C(C)(CC(=O)O)Cc1nc(CCCCNc2ccccn2)no1 (stereo not drawn) [Example 39, 3,4-dimethyl-3-({3-[4-(pyridin-2-ylamino)butyl]-1,2,4-oxadiazol-5-yl}methyl)-pentanoic acid]	++ (Selectivity Ratio of 10-100 ++)	< 10 µM	++ (Selectivity Ratio of 10-100 ++)
O=C(O)C(F)(F)F.O=C(O)CC(Cc1nc(CCCc2ccc3c(n2)NCCC3)no1)c1cccc(F)c1 (stereo not drawn) [Example 24, 3-(3-fluorophenyl)-4-{3-[3-(5,6,7,8-tetrahydro-1,8-naphthyridin-2-yl)propyl]-1,2,4-oxadiazol-5-yl}butanoic acid]	+++ (Selectivity Ratio >100 +++)	< 10 µM	+++ (Selectivity Ratio >100 +++)

Other lines, results leading:

SPRA AIIbB3 Selectivity* IIbIIIa/β3 [1]	IC50 [2]	HT-29 β-6 Selectivity* (β6/β3) [3]	SMILES
+++ (Selectivity Ratio >100 +++)	< 10 µM	+++ (Selectivity Ratio >100 +++)	CC(C)(CC(=O)O)Cc1nc(CCCCNc2ccccn2)no1 [Example 62, β,β-dimethyl-3-[4-(2-pyridinylamino)butyl]-1,2,4-oxadiazole-5-butanoic acid]
+++ (Selectivity Ratio >100 +++)	< 10 µM	+++ (Selectivity Ratio >100 +++)	CC(CC(=O)O)(Cc1nc(CCCCNc2ccccn2)no1)c1cccnc1 (stereo not drawn) [Example 57, 3-Methyl-3-pyridin-3-yl-4-{3-[4-(pyridin-2-ylamino)-butyl]-[1,2,4]oxadiazol-5-yl}-butyric acid]
+++ (Selectivity Ratio >100 +++)	< 10 µM	+++ (Selectivity Ratio >100 +++)	CCC(C)(CC(=O)O)Cc1nc(CCCc2ccc3c(n2)NCCC3)no1 (stereo not drawn) [Example 43, 3-Methyl-3-{3-[3-(5,6,7,8-tetrahydro-[1,8]naphthyridin-2-yl)-propyl]-[1,2,4]oxadiazol-5-ylmethyl}-pentanoic acid]
++ (Selectivity Ratio of 10-100 ++)	< 10 µM	+++ (Selectivity Ratio >100 +++)	CC(CC(=O)O)Cc1nc(CCCCNc2ccccn2)no1.Cl (stereo not drawn) [Example 69, 3-methyl-4-{3-[4-(pyridin-2-ylamino)butyl]-1,2,4-oxadiazol-5-yl}butanoic acid]
